Measured values from article PMC9679038, “Hemoglobin is an oxygen-dependent glutathione buffer adapting the intracellular reduced glutathione levels to oxygen availability” (Redox Biology, 2022).

Molecular target: T1, Hemoglobin (Hb; oxy-Hb, also deoxy-Hb) (Homo sapiens, UniProt P68871+P69905)
T1 construct: gene HBB
T1 sequence (P68871 2-147): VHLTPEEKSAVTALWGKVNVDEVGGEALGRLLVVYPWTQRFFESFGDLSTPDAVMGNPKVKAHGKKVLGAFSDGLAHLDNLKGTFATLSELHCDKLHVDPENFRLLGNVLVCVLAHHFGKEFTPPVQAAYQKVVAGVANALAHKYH
T1 sequence (P69905 2-142): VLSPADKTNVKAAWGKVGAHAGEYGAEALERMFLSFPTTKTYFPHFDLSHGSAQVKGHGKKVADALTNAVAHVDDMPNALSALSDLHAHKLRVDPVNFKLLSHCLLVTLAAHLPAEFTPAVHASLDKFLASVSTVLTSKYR

## N[C@@H](CCC(=O)N[C@@H](CS)C(=O)NCC(=O)O)C(=O)O [GSH, reduced glutathione]
  Kd: 2000 nM
